From US3951955A, “Penicillins substituted with heterocyclic groups” (Sumitomo Chemical Company, Limited, priority 1970, dated 1976)
Values after ≈ are worked out from the molar mass of the structure shown. Structures can show the parent of a compound that is named as a salt.

Columns and labels:
Test in all cases: minimal inhibitory concentration, agar dilution method (in vitro)
Format in all cases: cell-based
Escherichia coli NIHJ = test system: Escherichia coli NIHJ
Description: (§1) When determined according to the agar dilution method, the penicillins [I] afford the minimal inhibitory concentrations as shown in the following Table 1: […]

Proteus miravilis 2425 = test system: Proteus miravilis 2425
Description: as §1

[1] = test system: Pseudomonas aeruginosa 104
Description: as §1

[2] = test system: Staphylococcus aureus 209P
Description: as §1

[3] = test system: Klebsiella pneumoniae 602
Description: as §1

| SMILES | MIC (Escherichia coli NIHJ) [µg/mL] | MIC (Proteus miravilis 2425) [µg/mL] | MIC [1] [µg/mL] | MIC [2] [µg/mL] | MIC [3] [µg/mL] |
| --- | --- | --- | --- | --- | --- |
| CCOC(=O)Oc1c(C(=O)N[C@@H](C(=O)N[C@@H]2C(=O)N3[C@@H]2SC(C)(C)[C@@H]3C(=O)O)c2ccccc2)cnc2ccccc12 [Example 1, D-(-)-α-(4-ethoxycarbonyloxyquinoline-3-carbonamido)-benzylpenicillin] | 6.25 (≈ 10.5 µM) | 1.56 (≈ 2.63 µM) | 3.13 (≈ 5.28 µM) | 0.2 (≈ 0.337 µM) | – |
| CC1(C)S[C@@H]2[C@H](NC(=O)[C@H](NC(=O)c3cnc4ccccc4c3O)c3ccccc3)C(=O)N2[C@H]1C(=O)O [Example 3, D-(-)-α-(4-hydroxyquinoline-3-carbonamido)-benzylpenicillin] | 6.25 (≈ 12 µM) | 3.13 (≈ 6.01 µM) | 6.25 (≈ 12 µM) | 0.2 (≈ 0.384 µM) | 1.56 (≈ 3 µM) |
| Cc1ccc2c(O)c(C(=O)N[C@@H](C(=O)N[C@@H]3C(=O)N4[C@@H]3SC(C)(C)[C@@H]4C(=O)O)c3ccccc3)cnc2n1 [Example 4, D-(-)-α-(7-methyl-4-hydroxy-1,8-naphthyridine-3-carbonamido)-benzylpenicillin potassium salt] | 12.5 | 6.25 | 6.25 | 0.78 | – |
| CCOC(=O)Oc1c(C(=O)N[C@@H](C(=O)N[C@@H]2C(=O)N3[C@@H]2SC(C)(C)[C@@H]3C(=O)O)c2ccccc2)cnc2nc(C)ccc12 [Example 5, D-(-)-α-(7-methyl-4-ethoxycarbonyloxy-1,8-naphthyridine-3-carbonamido)-benzylpenicillin] | 12.5 (≈ 20.6 µM) | 6.25 (≈ 10.3 µM) | 12.5 (≈ 20.6 µM) | 0.78 (≈ 1.28 µM) | – |
| CC(C)(C)C(=O)Oc1c(C(=O)N[C@@H](C(=O)N[C@@H]2C(=O)N3[C@@H]2SC(C)(C)[C@@H]3C(=O)O)c2ccccc2)cnc2ccccc12 [Example 6, D-(-)-α-(4-pivaloyloxyquinoline-3-carbonamido)-benzylpenicillin] | 6.25 (≈ 10.3 µM) | 1.56 (≈ 2.58 µM) | 3.13 (≈ 5.18 µM) | 0.1 (≈ 0.165 µM) | – |
| Cc1nc2cc3c(cc2c(O)c1C(=O)N[C@@H](C(=O)N[C@@H]1C(=O)N2[C@@H]1SC(C)(C)[C@@H]2C(=O)O)c1ccccc1)OCO3 [Example 7, D-(-)-α-(2-methyl-6,7-methylenedioxy-4-hydroxyquinoline-3-carbonamido)-benzylpenicillin potassium salt] | 12.5 | 6.25 | 12.5 | 0.2 | – |
| CCSc1c(C(=O)NC(C(=O)N[C@@H]2C(=O)N3[C@@H]2SC(C)(C)[C@@H]3C(=O)O)c2ccccc2)cnc2cc3c(cc12)OCO3 (stereo partly shown) [Example 8] | 12.5 (≈ 20.5 µM) | 12.5 (≈ 20.5 µM) | 25 (≈ 41.1 µM) | 0.2 (≈ 0.329 µM) | – |
| CC1(C)S[C@@H]2[C@H](NC(=O)C(NC(=O)c3cnc4cc5c(cc4c3S)OCO5)c3ccccc3)C(=O)N2[C@H]1C(=O)O (stereo partly shown) [Example 9] | 6.25 (≈ 10.8 µM) | 3.13 (≈ 5.39 µM) | 3.13 (≈ 5.39 µM) | 0.2 (≈ 0.344 µM) | – |
| COc1c(C(=O)NC(C(=O)N[C@@H]2C(=O)N3[C@@H]2SC(C)(C)[C@@H]3C(=O)O)c2ccccc2)cnc2cc3c(cc12)OCO3 (stereo partly shown) [Example 10] | 12.5 (≈ 21.6 µM) | 25 (≈ 43.2 µM) | 25 (≈ 43.2 µM) | 0.2 (≈ 0.346 µM) | – |
| CSc1ccc2ncc(C(=O)NC(C(=O)N[C@@H]3C(=O)N4[C@@H]3SC(C)(C)[C@@H]4C(=O)O)c3ccccc3)c(O)c2n1 (stereo partly shown) [Example 11] | 6.25 (≈ 11 µM) | 3.13 (≈ 5.51 µM) | 3.13 (≈ 5.51 µM) | 0.1 (≈ 0.176 µM) | – |
| CN(C)c1ccc2ncc(C(=O)NC(C(=O)N[C@@H]3C(=O)N4[C@@H]3SC(C)(C)[C@@H]4C(=O)O)c3ccccc3)c(O)c2n1 (stereo partly shown) [Example 12] | 6.25 (≈ 11.1 µM) | 3.13 (≈ 5.54 µM) | 3.13 (≈ 5.54 µM) | 0.1 (≈ 0.177 µM) | – |
| CCOc1c(C(=O)NC(C(=O)N[C@@H]2C(=O)N3[C@@H]2SC(C)(C)[C@@H]3C(=O)O)c2ccccc2)cnc2ccccc12 (stereo partly shown) [Example 13] | 12.5 (≈ 22.8 µM) | 25 (≈ 45.6 µM) | 50 (≈ 91.1 µM) | 0.2 (≈ 0.365 µM) | – |
| COc1c(C(=O)NC(C(=O)N[C@@H]2C(=O)N3[C@@H]2SC(C)(C)[C@@H]3C(=O)O)c2ccccc2)cnc2ccccc12 (stereo partly shown) [Example 14] | 25 (≈ 46.8 µM) | 12.5 (≈ 23.4 µM) | 12.5 (≈ 23.4 µM) | 0.2 (≈ 0.374 µM) | 25 (≈ 46.8 µM) |
| CC1(C)S[C@@H]2[C@H](NC(=O)C(NC(=O)c3cnc4cc(Cl)ccc4c3O)c3ccccc3)C(=O)N2[C@H]1C(=O)O (stereo partly shown) [Example 15] | 3.13 (≈ 5.64 µM) | 1.56 (≈ 2.81 µM) | 3.13 (≈ 5.64 µM) | 0.2 (≈ 0.36 µM) | 0.39 (≈ 0.703 µM) |
| CCOC(=O)Oc1c(C(=O)NC(C(=O)N[C@@H]2C(=O)N3[C@@H]2SC(C)(C)[C@@H]3C(=O)O)c2ccccc2)cnc2cc(Cl)ccc12 (stereo partly shown) [Example 16] | 6.25 (≈ 9.97 µM) | 3.13 (≈ 4.99 µM) | 3.13 (≈ 4.99 µM) | 0.2 (≈ 0.319 µM) | 0.39 (≈ 0.622 µM) |
| CCOC(=O)Oc1c(C(=O)NC(C(=O)N[C@@H]2C(=O)N3[C@@H]2SC(C)(C)[C@@H]3C(=O)O)c2ccccc2)cnc2cc(OC)ccc12 (stereo partly shown) [Example 17] | 3.13 (≈ 5.03 µM) | 1.56 (≈ 2.51 µM) | 3.13 (≈ 5.03 µM) | 0.2 (≈ 0.321 µM) | 0.39 (≈ 0.626 µM) |
| COc1ccc2c(O)c(C(=O)NC(C(=O)N[C@@H]3C(=O)N4[C@@H]3SC(C)(C)[C@@H]4C(=O)O)c3ccccc3)cnc2c1 (stereo partly shown) [Example 18] | 6.25 (≈ 11.4 µM) | 1.56 (≈ 2.83 µM) | 6.25 (≈ 11.4 µM) | 0.39 (≈ 0.708 µM) | 0.78 (≈ 1.42 µM) |

More lines, now with the values ahead:

| MIC (Escherichia coli NIHJ) [µg/mL] | MIC (Proteus miravilis 2425) [µg/mL] | MIC [1] [µg/mL] | MIC [2] [µg/mL] | MIC [3] [µg/mL] | SMILES |
| --- | --- | --- | --- | --- | --- |
| 6.25 (≈ 11.4 µM) | 1.56 (≈ 2.83 µM) | 6.25 (≈ 11.4 µM) | 0.39 (≈ 0.708 µM) | 0.78 (≈ 1.42 µM) | COc1ccc2ncc(C(=O)NC(C(=O)N[C@@H]3C(=O)N4[C@@H]3SC(C)(C)[C@@H]4C(=O)O)c3ccccc3)c(O)c2c1 (stereo partly shown) [Example 19] |
| 12.5 (≈ 21.2 µM) | 3.13 (≈ 5.32 µM) | 6.25 (≈ 10.6 µM) | 0.39 (≈ 0.663 µM) | 0.39 (≈ 0.663 µM) | CC1(C)S[C@@H]2[C@H](NC(=O)C(NC(=O)c3cnc4cc(C(F)(F)F)ccc4c3O)c3ccccc3)C(=O)N2[C@H]1C(=O)O (stereo partly shown) [Example 20] |
| 12.5 (≈ 22.1 µM) | 6.25 (≈ 11.1 µM) | 12.5 (≈ 22.1 µM) | 0.39 (≈ 0.69 µM) | 0.78 (≈ 1.38 µM) | CC1(C)S[C@@H]2[C@H](NC(=O)C(NC(=O)c3cnc4cc([N+](=O)[O-])ccc4c3O)c3ccccc3)C(=O)N2[C@H]1C(=O)O (stereo partly shown) [Example 21] |
| 12.5 (≈ 20.9 µM) | 3.13 (≈ 5.23 µM) | 6.25 (≈ 10.4 µM) | 0.39 (≈ 0.651 µM) | 0.39 (≈ 0.651 µM) | CC1(C)S[C@@H]2[C@H](NC(=O)C(NC(=O)c3cnc4cc(S(C)(=O)=O)ccc4c3O)c3ccccc3)C(=O)N2[C@H]1C(=O)O (stereo partly shown) [Example 22] |
| 12.5 (≈ 21.6 µM) | 3.13 (≈ 5.42 µM) | 12.5 (≈ 21.6 µM) | 0.78 (≈ 1.35 µM) | 3.13 (≈ 5.42 µM) | CC(=O)Nc1ccc2ncc(C(=O)NC(C(=O)N[C@@H]3C(=O)N4[C@@H]3SC(C)(C)[C@@H]4C(=O)O)c3ccccc3)c(O)c2c1 (stereo partly shown) [Example 23] |
| 12.5 (≈ 16.9 µM) | 12.5 (≈ 16.9 µM) | 12.5 (≈ 16.9 µM) | 0.39 (≈ 0.526 µM) | 1.56 (≈ 2.1 µM) | CCOC(=O)Oc1c(C(=O)NC(C(=O)N[C@@H]2C(=O)N3[C@@H]2SC(C)(C)[C@@H]3C(=O)O)c2ccccc2)cnc2ccc(NC(=O)OCc3ccccc3)cc12 (stereo partly shown) [Example 24] |
| 12.5 (≈ 21 µM) | 3.16 (≈ 5.31 µM) | 6.25 (≈ 10.5 µM) | 0.39 (≈ 0.656 µM) | – | CC1(C)S[C@@H]2[C@H](NC(=O)C(NC(=O)c3cnc4cc(C(F)(F)F)ccc4c3O)c3cccs3)C(=O)N2[C@H]1C(=O)O (stereo partly shown) [Example 25] |
| 3.13 (≈ 5.37 µM) | 3.13 (≈ 5.37 µM) | 3.13 (≈ 5.37 µM) | 0.78 (≈ 1.34 µM) | 3.13 (≈ 5.37 µM) | COc1nc(OC)c2c(O)c(C(=O)NC(C(=O)N[C@@H]3C(=O)N4[C@@H]3SC(C)(C)[C@@H]4C(=O)O)c3ccccc3)cnc2n1 (stereo partly shown) [Example 26] |
| 1.56 (≈ 2.99 µM) | 3.13 (≈ 6 µM) | 3.13 (≈ 6 µM) | 0.78 (≈ 1.5 µM) | 6.25 (≈ 12 µM) | CC1(C)S[C@@H]2[C@H](NC(=O)C(NC(=O)c3cnc4cccnc4c3O)c3ccccc3)C(=O)N2[C@H]1C(=O)O (stereo partly shown) [Example 27] |
| 1.56 (≈ 2.83 µM) | 1.56 (≈ 2.83 µM) | 3.13 (≈ 5.67 µM) | 0.78 (≈ 1.41 µM) | 3.13 (≈ 5.67 µM) | COc1ccc2ncc(C(=O)NC(C(=O)N[C@@H]3C(=O)N4[C@@H]3SC(C)(C)[C@@H]4C(=O)O)c3ccccc3)c(O)c2n1 (stereo partly shown) [Example 28] |
| 1.56 (≈ 2.9 µM) | 3.13 (≈ 5.82 µM) | 3.13 (≈ 5.82 µM) | 1.56 (≈ 2.9 µM) | 3.13 (≈ 5.82 µM) | CC1(C)S[C@@H]2[C@H](NC(=O)C(NC(=O)c3cnc4ccc(O)nc4c3O)c3ccccc3)C(=O)N2[C@H]1C(=O)O (stereo partly shown) [Example 29] |
| 3.13 (≈ 5.41 µM) | 6.25 (≈ 10.8 µM) | 6.25 (≈ 10.8 µM) | 0.78 (≈ 1.35 µM) | 3.13 (≈ 5.41 µM) | CC(=O)Nc1ccc2ncc(C(=O)NC(C(=O)N[C@@H]3C(=O)N4[C@@H]3SC(C)(C)[C@@H]4C(=O)O)c3ccccc3)c(O)c2n1 (stereo partly shown) [Example 30] |
| 3.13 (≈ 5.04 µM) | 6.25 (≈ 10.1 µM) | 6.25 (≈ 10.1 µM) | 0.78 (≈ 1.26 µM) | 6.25 (≈ 10.1 µM) | CC(=O)CC(=O)Nc1ccc2ncc(C(=O)NC(C(=O)NC3C(=O)N4C3SC(C)(C)C4C(=O)O)c3ccccc3)c(O)c2n1 (stereo not shown) [Example 31] |
| 1.56 (≈ 2.91 µM) | 1.56 (≈ 2.91 µM) | 3.13 (≈ 5.84 µM) | 0.78 (≈ 1.46 µM) | 3.13 (≈ 5.84 µM) | Cc1ccc2ncc(C(=O)NC(C(=O)NC3C(=O)N4C3SC(C)(C)C4C(=O)O)c3ccccc3)c(O)c2n1 (stereo not shown) [Example 32] |
| 3.13 (≈ 5.84 µM) | 3.13 (≈ 5.84 µM) | 6.25 (≈ 11.7 µM) | 1.56 (≈ 2.91 µM) | 3.13 (≈ 5.84 µM) | Cc1cnc2c(O)c(C(=O)NC(C(=O)NC3C(=O)N4C3SC(C)(C)C4C(=O)O)c3ccccc3)cnc2c1 (stereo not shown) [Example 33] |
| 3.13 (≈ 5.84 µM) | 3.13 (≈ 5.84 µM) | 3.13 (≈ 5.84 µM) | 1.56 (≈ 2.91 µM) | 6.25 (≈ 11.7 µM) | Cc1ccnc2c(O)c(C(=O)NC(C(=O)NC3C(=O)N4C3SC(C)(C)C4C(=O)O)c3ccccc3)cnc12 (stereo not shown) [Example 34] |
| 1.56 (≈ 2.83 µM) | 6.25 (≈ 11.4 µM) | 3.13 (≈ 5.68 µM) | 0.78 (≈ 1.42 µM) | 3.13 (≈ 5.68 µM) | CNc1ccc2ncc(C(=O)NC(C(=O)NC3C(=O)N4C3SC(C)(C)C4C(=O)O)c3ccccc3)c(O)c2n1 (stereo not shown) [Example 35] |
| 1.56 (≈ 2.63 µM) | 3.13 (≈ 5.28 µM) | 3.13 (≈ 5.28 µM) | 1.56 (≈ 2.63 µM) | 3.13 (≈ 5.28 µM) | CCCCNc1ccc2ncc(C(=O)NC(C(=O)NC3C(=O)N4C3SC(C)(C)C4C(=O)O)c3ccccc3)c(O)c2n1 (stereo not shown) [Example 36] |
